Values quoted from earlier work, collected in publication PMC11728000, “Antitumor Activity and Multi-Target Mechanism of Phenolic Schiff Bases Bearing Methanesulfonamide Fragments: Cell Cycle Analysis and a Molecular Modeling Study” (International Journal of Molecular Sciences, 2024).

Experiments:
NCI-H226 = test system: NCI-H226; design: method as in https://dtp.cancer.gov/dtpstandard/dwindex/index.jsp; conditions: ref https://dtp.cancer.gov/dtpstandard/dwindex/index.jsp; cited from earlier work
SN12C = test system: SN12C; design: method as in https://dtp.cancer.gov/dtpstandard/dwindex/index.jsp; conditions: ref https://dtp.cancer.gov/dtpstandard/dwindex/index.jsp; cited from earlier work
UO-31 = test system: UO-31; design: method as in https://dtp.cancer.gov/dtpstandard/dwindex/index.jsp; conditions: ref https://dtp.cancer.gov/dtpstandard/dwindex/index.jsp; cited from earlier work
[1] = test system: Prostate Cancer subpanel tumor cell lines; conditions: cited from earlier work; for GI50: read-out: GI50, subpanel average, ref https://dtp.cancer.gov/dtpstandard/dwindex/index.jsp; for CC50: read-out: LC50, subpanel average, ref https://dtp.cancer.gov/dtpstandard/dwindex/index.jsp; for TGI, subpanel average: ref https://dtp.cancer.gov/dtpstandard/dwindex/index.jsp
SK-OV-3 = test system: SK-OV-3; design: method as in https://dtp.cancer.gov/dtpstandard/dwindex/index.jsp; conditions: ref https://dtp.cancer.gov/dtpstandard/dwindex/index.jsp; cited from earlier work
SNB-19 = test system: SNB-19; design: method as in https://dtp.cancer.gov/dtpstandard/dwindex/index.jsp; conditions: ref https://dtp.cancer.gov/dtpstandard/dwindex/index.jsp; cited from earlier work
OVCAR-8 = test system: OVCAR-8; design: method as in https://dtp.cancer.gov/dtpstandard/dwindex/index.jsp; conditions: ref https://dtp.cancer.gov/dtpstandard/dwindex/index.jsp; cited from earlier work
[2] = test system: Ovarian Cancer subpanel tumor cell lines; conditions: cited from earlier work; for GI50: read-out: GI50, subpanel average, ref https://dtp.cancer.gov/dtpstandard/dwindex/index.jsp; for CC50: read-out: LC50, subpanel average, ref https://dtp.cancer.gov/dtpstandard/dwindex/index.jsp; for TGI, subpanel average: ref https://dtp.cancer.gov/dtpstandard/dwindex/index.jsp
K-562 = test system: K-562; design: method as in https://dtp.cancer.gov/dtpstandard/dwindex/index.jsp; conditions: ref https://dtp.cancer.gov/dtpstandard/dwindex/index.jsp; cited from earlier work
U251 = test system: U251; design: method as in https://dtp.cancer.gov/dtpstandard/dwindex/index.jsp; conditions: ref https://dtp.cancer.gov/dtpstandard/dwindex/index.jsp; cited from earlier work
ACHN = test system: ACHN; design: method as in https://dtp.cancer.gov/dtpstandard/dwindex/index.jsp; conditions: ref https://dtp.cancer.gov/dtpstandard/dwindex/index.jsp; cited from earlier work
HCT-15 = test system: HCT-15; design: method as in https://dtp.cancer.gov/dtpstandard/dwindex/index.jsp; conditions: ref https://dtp.cancer.gov/dtpstandard/dwindex/index.jsp; cited from earlier work
UACC-257 = test system: UACC-257; design: method as in https://dtp.cancer.gov/dtpstandard/dwindex/index.jsp; conditions: ref https://dtp.cancer.gov/dtpstandard/dwindex/index.jsp; cited from earlier work
[3] = test system: Breast Cancer subpanel tumor cell lines; conditions: cited from earlier work; for TGI, subpanel average: ref https://dtp.cancer.gov/dtpstandard/dwindex/index.jsp; for GI50: read-out: GI50, subpanel average, ref https://dtp.cancer.gov/dtpstandard/dwindex/index.jsp
PC-3 = test system: PC-3; design: method as in https://dtp.cancer.gov/dtpstandard/dwindex/index.jsp; conditions: ref https://dtp.cancer.gov/dtpstandard/dwindex/index.jsp; cited from earlier work
NCI-H522 = test system: NCI-H522; design: method as in https://dtp.cancer.gov/dtpstandard/dwindex/index.jsp; conditions: ref https://dtp.cancer.gov/dtpstandard/dwindex/index.jsp; cited from earlier work
[4] = test system: Leukemia subpanel tumor cell lines; conditions: cited from earlier work; for GI50: read-out: GI50, subpanel average, ref https://dtp.cancer.gov/dtpstandard/dwindex/index.jsp; for CC50: read-out: LC50, subpanel average, ref https://dtp.cancer.gov/dtpstandard/dwindex/index.jsp; for TGI, subpanel average: ref https://dtp.cancer.gov/dtpstandard/dwindex/index.jsp
A549/ATCC = test system: A549/ATCC; design: method as in https://dtp.cancer.gov/dtpstandard/dwindex/index.jsp; conditions: ref https://dtp.cancer.gov/dtpstandard/dwindex/index.jsp; cited from earlier work
OVCAR-5 = test system: OVCAR-5; design: method as in https://dtp.cancer.gov/dtpstandard/dwindex/index.jsp; conditions: ref https://dtp.cancer.gov/dtpstandard/dwindex/index.jsp; cited from earlier work
MCF-7 = test system: MCF-7; design: method as in https://dtp.cancer.gov/dtpstandard/dwindex/index.jsp; conditions: ref https://dtp.cancer.gov/dtpstandard/dwindex/index.jsp; cited from earlier work
[5] = test system: CNS Cancer subpanel tumor cell lines; conditions: cited from earlier work; for GI50: read-out: GI50, subpanel average, ref https://dtp.cancer.gov/dtpstandard/dwindex/index.jsp; for CC50: read-out: LC50, subpanel average, ref https://dtp.cancer.gov/dtpstandard/dwindex/index.jsp; for TGI, subpanel average: ref https://dtp.cancer.gov/dtpstandard/dwindex/index.jsp
IGROV1 = test system: IGROV1; design: method as in https://dtp.cancer.gov/dtpstandard/dwindex/index.jsp; conditions: ref https://dtp.cancer.gov/dtpstandard/dwindex/index.jsp; cited from earlier work
MALME-3M = test system: MALME-3M; design: method as in https://dtp.cancer.gov/dtpstandard/dwindex/index.jsp; conditions: ref https://dtp.cancer.gov/dtpstandard/dwindex/index.jsp; cited from earlier work
SF-268 = test system: SF-268; design: method as in https://dtp.cancer.gov/dtpstandard/dwindex/index.jsp; conditions: ref https://dtp.cancer.gov/dtpstandard/dwindex/index.jsp; cited from earlier work
CCRF-CEM = test system: CCRF-CEM; design: method as in https://dtp.cancer.gov/dtpstandard/dwindex/index.jsp; conditions: ref https://dtp.cancer.gov/dtpstandard/dwindex/index.jsp; cited from earlier work
HOP-62 = test system: HOP-62; design: method as in https://dtp.cancer.gov/dtpstandard/dwindex/index.jsp; conditions: ref https://dtp.cancer.gov/dtpstandard/dwindex/index.jsp; cited from earlier work
RXF 393 = test system: RXF 393; design: method as in https://dtp.cancer.gov/dtpstandard/dwindex/index.jsp; conditions: ref https://dtp.cancer.gov/dtpstandard/dwindex/index.jsp; cited from earlier work
MOLT-4 = test system: MOLT-4; design: method as in https://dtp.cancer.gov/dtpstandard/dwindex/index.jsp; conditions: ref https://dtp.cancer.gov/dtpstandard/dwindex/index.jsp; cited from earlier work
786-0 = test system: 786-0; design: method as in https://dtp.cancer.gov/dtpstandard/dwindex/index.jsp; conditions: ref https://dtp.cancer.gov/dtpstandard/dwindex/index.jsp; cited from earlier work
SR = test system: SR; design: method as in https://dtp.cancer.gov/dtpstandard/dwindex/index.jsp; conditions: ref https://dtp.cancer.gov/dtpstandard/dwindex/index.jsp; cited from earlier work
BT-549 = test system: BT-549; design: method as in https://dtp.cancer.gov/dtpstandard/dwindex/index.jsp; conditions: ref https://dtp.cancer.gov/dtpstandard/dwindex/index.jsp; cited from earlier work
NCI-H460 = test system: NCI-H460; design: method as in https://dtp.cancer.gov/dtpstandard/dwindex/index.jsp; conditions: ref https://dtp.cancer.gov/dtpstandard/dwindex/index.jsp; cited from earlier work
SK-MEL-28 = test system: SK-MEL-28; design: method as in https://dtp.cancer.gov/dtpstandard/dwindex/index.jsp; conditions: ref https://dtp.cancer.gov/dtpstandard/dwindex/index.jsp; cited from earlier work
NCI-H322M = test system: NCI-H322M; design: method as in https://dtp.cancer.gov/dtpstandard/dwindex/index.jsp; conditions: ref https://dtp.cancer.gov/dtpstandard/dwindex/index.jsp; cited from earlier work
UACC-62 = test system: UACC-62; design: method as in https://dtp.cancer.gov/dtpstandard/dwindex/index.jsp; conditions: ref https://dtp.cancer.gov/dtpstandard/dwindex/index.jsp; cited from earlier work
HS 578T = test system: HS 578T; design: method as in https://dtp.cancer.gov/dtpstandard/dwindex/index.jsp; conditions: ref https://dtp.cancer.gov/dtpstandard/dwindex/index.jsp; cited from earlier work
KM12 = test system: KM12; design: method as in https://dtp.cancer.gov/dtpstandard/dwindex/index.jsp; conditions: ref https://dtp.cancer.gov/dtpstandard/dwindex/index.jsp; cited from earlier work
LOX IMVI = test system: LOX IMVI; design: method as in https://dtp.cancer.gov/dtpstandard/dwindex/index.jsp; conditions: ref https://dtp.cancer.gov/dtpstandard/dwindex/index.jsp; cited from earlier work
T-47D = test system: T-47D; design: method as in https://dtp.cancer.gov/dtpstandard/dwindex/index.jsp; conditions: ref https://dtp.cancer.gov/dtpstandard/dwindex/index.jsp; cited from earlier work

## CNC(=O)c1cc(Oc2ccc(NC(=O)Nc3ccc(Cl)c(C(F)(F)F)c3)cc2)ccn1 [Sorafenib, sorafenib]
NCI-H226
  GI50: 1.99 µM
SN12C
  GI50: 2.51 µM
UO-31
  GI50: 2.51 µM
[1]
  GI50: 2.58 µM
  CC50: 69.9 µM
  TGI, subpanel average: 10.27 µM
SK-OV-3
  GI50: 2.51 µM
SNB-19
  GI50: 3.16 µM
OVCAR-8
  GI50: 3.16 µM
[2]
  GI50: 2.89 µM
  CC50: 71.3 µM
  TGI, subpanel average: 14.43 µM
K-562
  GI50: 3.16 µM
U251
  GI50: 1.99 µM
ACHN
  GI50: 2.51 µM
HCT-15
  GI50: 2.51 µM
UACC-257
  GI50: 1.99 µM
[3]; read-out: LC50, subpanel average, ref https://dtp.cancer.gov/dtpstandard/dwindex/index.jsp
  CC50: 57.3 µM
[3]
  TGI, subpanel average: 9.35 µM
PC-3
  GI50: 1.99 µM
NCI-H522
  GI50: 1.99 µM
[4]
  GI50: 1.91 µM
  CC50: > 100 µM
  TGI, subpanel average: 42.12 µM
A549/ATCC
  GI50: 3.16 µM
OVCAR-5
  GI50: 3.16 µM
MCF-7
  GI50: 2.51 µM
[5]
  GI50: 2.33 µM
  CC50: 27.8 µM
  TGI, subpanel average: 7.64 µM
IGROV1
  GI50: 2.51 µM
MALME-3M
  GI50: 1.99 µM
SF-268
  GI50: 2.51 µM
CCRF-CEM
  GI50: 1.99 µM
HOP-62
  GI50: 1.99 µM
RXF 393
  GI50: 2.51 µM
MOLT-4
  GI50: 3.16 µM
786-0
  GI50: 3.16 µM
SR
  GI50: 3.16 µM
BT-549
  GI50: 3.16 µM
NCI-H460
  GI50: 2.51 µM
SK-MEL-28
  GI50: 2.51 µM
NCI-H322M
  GI50: 2.51 µM

## Cc1ccc(-c2cc(C(F)(F)F)nn2-c2ccc(S(N)(=O)=O)cc2)cc1 [Celecoxib, celecoxib]
SN12C
  GI50: 15.8 µM
UO-31
  GI50: 15.8 µM
[1]
  GI50: 14.2 µM
  CC50: 57 µM
  TGI, subpanel average: 28.37 µM
SK-OV-3
  GI50: 19.9 µM
SNB-19
  GI50: 19.9 µM
OVCAR-8
  GI50: 19.9 µM
[2]
  GI50: 17.1 µM
  CC50: 65.9 µM
  TGI, subpanel average: 34.20 µM
K-562
  GI50: 10 µM
U251
  GI50: 15.8 µM
ACHN
  GI50: 15.8 µM
HCT-15
  GI50: 15.8 µM
UACC-257
  GI50: 19.9 µM
[3]
  GI50: 17.5 µM
  TGI, subpanel average: 34.89 µM
PC-3
  GI50: 12.6 µM
UACC-62
  GI50: 15.8 µM
[4]
  GI50: 12.3 µM
  CC50: 67.1 µM
  TGI, subpanel average: 29.27 µM
A549/ATCC
  GI50: 15.8 µM
HS 578T
  GI50: 19.9 µM
OVCAR-5
  GI50: 19.9 µM
MCF-7
  GI50: 15.8 µM
[5]
  GI50: 17.2 µM
  CC50: 58.8 µM
  TGI, subpanel average: 31.62 µM
IGROV1
  GI50: 15.8 µM
KM12
  GI50: 15.8 µM
MALME-3M
  GI50: 19.9 µM
SF-268
  GI50: 15.8 µM
CCRF-CEM
  GI50: 12.6 µM
HOP-62
  GI50: 63.1 µM
RXF 393
  GI50: 15.8 µM
MOLT-4
  GI50: 15.8 µM
786-0
  GI50: 39.8 µM
SR
  GI50: 15.8 µM
BT-549
  GI50: 19.9 µM
LOX IMVI
  GI50: 19.9 µM
NCI-H460
  GI50: 15.8 µM
SK-MEL-28
  GI50: 15.8 µM
T-47D
  GI50: 15.8 µM
NCI-H322M
  GI50: 19.9 µM

## COc1cc2ncnc(Nc3ccc(F)c(Cl)c3)c2cc1OCCCN1CCOCC1 [Gefitinib, gefitinib]
NCI-H226
  GI50: 3.98 µM
SN12C
  GI50: 1.26 µM
UO-31
  GI50: 1.58 µM
[1]
  GI50: 3.29 µM
  TGI, subpanel average: 31.62 µM
SK-OV-3
  GI50: 1 µM
SNB-19
  GI50: 3.16 µM
[2]
  GI50: 3.05 µM
  TGI, subpanel average: 33.29 µM
K-562
  GI50: 2.51 µM
U251
  GI50: 3.16 µM
ACHN
  GI50: 0.158 µM
HCT-15
  GI50: 3.98 µM
UACC-257
  GI50: 2.51 µM
[3]
  GI50: 4.67 µM
  TGI, subpanel average: 18.62 µM
NCI-H522
  GI50: 1 µM
UACC-62
  GI50: 2 µM
[4]
  GI50: 2.56 µM
  TGI, subpanel average: 12.07 µM
A549/ATCC
  GI50: 2.51 µM
HS 578T
  GI50: 7.94 µM
OVCAR-5
  GI50: 3.98 µM
[5]
  GI50: 5.64 µM
  TGI, subpanel average: 19.62 µM
IGROV1
  GI50: 3.16 µM
KM12
  GI50: 10 µM
MALME-3M
  GI50: 3.98 µM
SF-268
  GI50: 2.51 µM
CCRF-CEM
  GI50: 0.398 µM
HOP-62
  GI50: 3.16 µM
RXF 393
  GI50: 3.16 µM
MOLT-4
  GI50: 2 µM
786-0
  GI50: 3.16 µM
SR
  GI50: 3.16 µM
BT-549
  GI50: 3.16 µM
LOX IMVI
  GI50: 3.16 µM
NCI-H460
  GI50: 3.16 µM
SK-MEL-28
  GI50: 3.16 µM
T-47D
  GI50: 7.94 µM
NCI-H322M
  GI50: 0.063 µM
